Measured values as given in ChEMBL document CHEMBL4354843, “Structure-Based Design of a Potent and Selective Covalent Inhibitor for SRC Kinase That Targets a P-Loop Cysteine” (J Med Chem, 2020).
pIC50: −log10 of the molar value.

What was measured:
[1] = biological target: T1, Mitogen-activated protein kinase kinase kinase 7 (Homo sapiens, UniProt O43318); experiment: Inhibition of tracer 222 binding to recombinant human His-tagged TAK1 (437 to 504 residues) expressed in baculovirus expression system […] incubated for 60 mins by Lanthascreen assay
T1 sequence (O43318 whole entry): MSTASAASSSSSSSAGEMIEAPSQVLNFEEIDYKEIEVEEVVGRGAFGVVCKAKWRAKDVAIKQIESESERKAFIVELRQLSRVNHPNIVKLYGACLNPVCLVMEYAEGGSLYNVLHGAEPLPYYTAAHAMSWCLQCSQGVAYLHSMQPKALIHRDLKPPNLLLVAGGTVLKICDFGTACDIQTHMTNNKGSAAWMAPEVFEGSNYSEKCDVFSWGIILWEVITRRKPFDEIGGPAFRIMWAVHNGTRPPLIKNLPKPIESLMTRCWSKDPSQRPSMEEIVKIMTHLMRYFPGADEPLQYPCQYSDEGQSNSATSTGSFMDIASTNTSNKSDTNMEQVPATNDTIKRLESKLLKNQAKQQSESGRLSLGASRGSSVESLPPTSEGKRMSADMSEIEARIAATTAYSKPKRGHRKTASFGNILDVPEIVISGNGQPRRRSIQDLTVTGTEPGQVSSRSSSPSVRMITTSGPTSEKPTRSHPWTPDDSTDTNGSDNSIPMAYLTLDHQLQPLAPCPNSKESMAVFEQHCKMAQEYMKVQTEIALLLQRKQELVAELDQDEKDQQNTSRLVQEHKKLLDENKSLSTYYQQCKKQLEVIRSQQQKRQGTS

[2] = biological target: Fibroblast growth factor receptor 1 (Homo sapiens, UniProt P11362); experiment: Inhibition of recombinant human His-tagged FGFR1 (308 to 731 residues) expressed in baculovirus expression system using tyrosine-4 peptide as substrate incubated for 1 hr by Z'-LYTE assay
[3] = biological target: Proto-oncogene tyrosine-protein kinase Src (Homo sapiens, UniProt P12931); experiment: Inhibition of recombinant human His-tagged full length SRC expressed in baculovirus expression system using tyrosine-2 peptide as substrate incubated for 1 hr by Z'-LYTE assay
Proto-oncogene tyrosine-protein kinase Src, sequence (P12931 2-536 limits assumed): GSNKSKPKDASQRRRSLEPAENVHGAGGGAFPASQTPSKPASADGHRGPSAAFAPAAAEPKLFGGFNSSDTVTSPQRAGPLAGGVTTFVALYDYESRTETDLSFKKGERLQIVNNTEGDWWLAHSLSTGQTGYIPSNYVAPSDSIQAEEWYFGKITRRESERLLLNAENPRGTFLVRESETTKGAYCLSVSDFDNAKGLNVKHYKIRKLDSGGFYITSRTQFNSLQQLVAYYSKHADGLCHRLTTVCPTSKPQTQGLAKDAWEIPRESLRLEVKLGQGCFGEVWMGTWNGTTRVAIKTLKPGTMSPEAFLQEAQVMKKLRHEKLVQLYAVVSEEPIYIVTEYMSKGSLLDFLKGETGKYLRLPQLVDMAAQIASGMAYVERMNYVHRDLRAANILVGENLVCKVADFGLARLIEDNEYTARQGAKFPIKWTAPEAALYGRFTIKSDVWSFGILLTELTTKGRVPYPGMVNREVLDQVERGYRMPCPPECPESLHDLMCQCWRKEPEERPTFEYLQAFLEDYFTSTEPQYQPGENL

Fibroblast growth factor receptor 1, sequence (P11362 whole entry, the tested form may be a part): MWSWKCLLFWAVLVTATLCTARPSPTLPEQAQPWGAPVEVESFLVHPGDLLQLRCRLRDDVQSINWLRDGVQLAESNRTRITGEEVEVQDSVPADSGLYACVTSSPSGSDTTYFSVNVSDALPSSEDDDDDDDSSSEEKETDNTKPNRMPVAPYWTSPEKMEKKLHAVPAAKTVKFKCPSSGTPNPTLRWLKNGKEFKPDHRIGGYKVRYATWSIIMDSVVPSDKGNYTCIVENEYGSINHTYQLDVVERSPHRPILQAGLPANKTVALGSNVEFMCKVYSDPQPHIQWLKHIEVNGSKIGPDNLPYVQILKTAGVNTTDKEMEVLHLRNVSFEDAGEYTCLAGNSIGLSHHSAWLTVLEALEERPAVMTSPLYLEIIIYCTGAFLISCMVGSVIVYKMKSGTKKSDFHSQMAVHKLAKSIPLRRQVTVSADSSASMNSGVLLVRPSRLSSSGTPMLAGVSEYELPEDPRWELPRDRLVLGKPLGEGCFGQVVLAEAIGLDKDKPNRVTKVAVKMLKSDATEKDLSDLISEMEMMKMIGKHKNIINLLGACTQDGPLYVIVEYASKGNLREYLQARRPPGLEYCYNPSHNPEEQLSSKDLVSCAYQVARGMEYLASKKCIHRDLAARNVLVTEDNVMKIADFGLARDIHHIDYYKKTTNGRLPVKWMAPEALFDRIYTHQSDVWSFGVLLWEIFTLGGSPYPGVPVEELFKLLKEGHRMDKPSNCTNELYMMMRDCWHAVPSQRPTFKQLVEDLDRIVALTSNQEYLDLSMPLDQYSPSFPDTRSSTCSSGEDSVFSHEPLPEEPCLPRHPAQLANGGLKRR

pIC50 [1] | pIC50 [2] | pIC50 [3] | SMILES
5.26 | 7.05 | 8.30 | C=CC(=O)Nc1ccccc1Nc1nc(Nc2ccc(N3CCN(C)CC3)cc2)ncc1-c1ccc(Oc2ccccc2)cc1
6.27 | 7.77 | 8.52 | C=CC(=O)Nc1ccccc1Nc1nc(Nc2ccc(N3CCN(C)CC3)cc2)ncc1-c1cccs1
 | 6.92 | 8.30 | C=CC(=O)Nc1ccccc1Nc1nc(Nc2ccc(N3CCN(C)CC3)cc2)ncc1OCc1ccc(C)cc1
 | < 5.00 |  | C=CC(=O)Nc1ccccc1Nc1nc(Nc2ccc(N3CCN(C)CC3)cc2)ncc1C(=O)Nc1ccccc1CC
 | < 5.00 |  | C=CC(=O)Nc1ccccc1Nc1nc(Nc2ccc(N3CCN(C)CC3)cc2)ncc1C(=O)Nc1cc(C)cc(Cl)c1
 | < 5.00 |  | C=CC(=O)Nc1ccccc1Nc1nc(Nc2ccc(N3CCN(C)CC3)cc2)ncc1C(=O)Nc1c(C)cc(C#N)cc1Cl
 | 5.17 |  | C=CC(=O)Nc1ccccc1Nc1nc(Nc2ccc(N3CCN(C)CC3)cc2)ncc1C(=O)Nc1cc(OC)c(OC)cc1C
 | < 5.00 |  | C=CC(=O)Nc1ccccc1Nc1nc(Nc2ccc(N3CCN(C)CC3)cc2)ncc1C(=O)Nc1c(C)cc(Cl)cc1Cl
 |  | < 5.00 | C=CC(=O)Nc1ccccc1Nc1nc(Nc2ccc(N3CCC(N4CCN(C)CC4)CC3)cc2)ncc1C(=O)Nc1c(C)cccc1Cl
 | 6.41 |  | C=CC(=O)Nc1ccccc1Nc1nc(Nc2ccc(N3CCN(C)CC3)cc2)ncc1C(=O)Nc1c(Cl)c(OC)cc(OC)c1Cl
 | < 5.00 | < 5.48 | C=CC(=O)Nc1ccccc1Nc1nc(Nc2ccc(N3CCN(C)CC3)cc2)ncc1C(=O)Nc1ccc(Oc2ccccc2)cc1
 | 7.27 | 8.40 | C=CC(=O)Nc1ccccc1Nc1nc(Nc2ccc(N3CCN(C)CC3)cc2)ncc1Cl
 | 5.98 | 8.22 | C=CC(=O)Nc1ccccc1Nc1nc(Nc2ccc(N3CCN(C)CC3)cc2)ncc1OCc1ccc(Oc2ccccc2)cc1
5.72 | 7.70 | 8.22 | C=CC(=O)Nc1ccccc1Nc1nc(Nc2ccc(N3CCN(C)CC3)cc2)ncc1-c1ccc(OC)nc1
5.83 | 7.14 | 8.22 | C=CC(=O)Nc1ccccc1Nc1nc(Nc2ccc(N3CCN(C)CC3)cc2)ncc1-c1ccc(C(C)=O)cc1
6.65 | 7.92 | 8.70 | C=CC(=O)Nc1ccccc1Nc1nc(Nc2ccc(N3CCN(C)CC3)cc2)ncc1-c1ccoc1
 | < 5.48 |  | C=CC(=O)Nc1ccccc1Nc1nc(Nc2ccc(N3CCN(C)CC3)cc2)ncc1C(=O)Nc1c(C)cc(C)cc1Cl
 | 6.43 | 8.52 | C=CC(=O)Nc1ccccc1Nc1nc(Nc2ccc(N3CCN(C)CC3)cc2)ncc1OCc1c(C)cccc1Cl
